Reference: PubChem BioAssay AID256 (DTP/NCI, 2004)
“And” between values parts separate entries of the source, which are not always exact repeats. Equal entries are not always repeated. Toxic doses and inconclusive results are not listed. Rule for the calls: active = survival T/C of 150% or more; inactive = T/C below 125% in these data.

System: CD2F1 mice, L1210 leukemia ip, survival T/C
Assay: NCI In Vivo Anticancer Drug Screen. Data for tumor model L1210 Leukemia (intraperitoneal) in CD2F1 (CDF1) mice
Settings: endpoint: mean survival time, higher = longer survival
In short: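 Activity against a transplanted murine tumor was judged by comparing the compound group with a vehicle group. The outcome in the treated animals was divided by that in the controls.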

[1] = dose: 100.0 mg/kg/injection, schedule: Q04DX003 (ip), vehicle: saline
[2] = dose: 200.0 mg/kg/injection, schedule: Q04DX003 (ip), vehicle: saline
[3] = dose: 400.0 mg/kg/injection, schedule: Q04DX003 (ip), vehicle: saline
[4] = dose: 100.0 mg/kg/injection, schedule: Q04DX002 (ip), vehicle: saline
[5] = dose: 200.0 mg/kg/injection, schedule: Q04DX002 (ip), vehicle: saline
[6] = dose: 100.0 mg/kg/injection, schedule: Q04DX002 (ip), vehicle: saline with Tween-80
[7] = dose: 200.0 mg/kg/injection, schedule: Q04DX002 (ip), vehicle: saline with Tween-80
[8] = dose: 400.0 mg/kg/injection, schedule: Q04DX002 (ip), vehicle: saline with Tween-80
[9] = dose: 25.0 mg/kg/injection, schedule: Q01DX009 (ip), vehicle: saline
[10] = dose: 50.0 mg/kg/injection, schedule: Q01DX009 (ip), vehicle: saline
[11] = dose: 100.0 mg/kg/injection, schedule: Q01DX009 (ip), vehicle: saline
[12] = dose: 200.0 mg/kg/injection, schedule: Q01DX009 (ip), vehicle: saline
[13] = dose: 100.0 mg/kg/injection, schedule: Q01DX009 (ip), vehicle: saline with Tween-80
[14] = dose: 200.0 mg/kg/injection, schedule: Q01DX009 (ip), vehicle: saline with Tween-80
[15] = dose: 400.0 mg/kg/injection, schedule: Q01DX009 (ip), vehicle: saline with Tween-80
[16] = dose: 100.0 mg/kg/injection, schedule: Q04DX003 (ip), vehicle: saline with Tween-80
[17] = dose: 50.0 mg/kg/injection, schedule: Q01DX009 (ip), vehicle: saline with Tween-80
[18] = dose: 200.0 mg/kg/injection, schedule: Q04DX003 (ip), vehicle: saline with Tween-80
[19] = dose: 12.5 mg/kg/injection, schedule: Q01DX009 (ip), vehicle: saline with Tween-80
[20] = dose: 25.0 mg/kg/injection, schedule: Q01DX009 (ip), vehicle: saline with Tween-80
[21] = dose: 50.0 mg/kg/injection, schedule: Q04DX002 (ip), vehicle: saline with Tween-80

Measured: T/C

CC(=O)OC1C(OC(C)=O)C(OC(C)=O)C(OS(C)(=O)=O)C(OC(=O)c2ccccc2)C1OC(C)=O (stereo not given)
inactive: dose: 100.0 mg/kg/injection, schedule: Q01DX009 (ip), vehicle: Klucel (hydroxypropylcellulose) (HPC) 96 % of control | dose: 200.0 mg/kg/injection, schedule: Q01DX009 (ip), vehicle: Klucel (hydroxypropylcellulose) (HPC) 86 % of control | dose: 400.0 mg/kg/injection, schedule: Q01DX009 (ip), vehicle: Klucel (hydroxypropylcellulose) (HPC) 91 % of control

O=C(O)C1=CC(O)C(O)C(O)C1 (stereo not given)
inactive: [1] 102 % of control | [2] 96 % of control | [3] 90 % of control

N#Cc1nc(/C=C\c2ccc3c(c2)OCO3)cnc1N
inactive: dose: 100.0 mg/kg/injection, schedule: Q01DX001 (ip), vehicle: Klucel (hydroxypropylcellulose) (HPC) 90 % of control | dose: 200.0 mg/kg/injection, schedule: Q01DX001 (ip), vehicle: Klucel (hydroxypropylcellulose) (HPC) 90 % of control | dose: 400.0 mg/kg/injection, schedule: Q01DX001 (ip), vehicle: Klucel (hydroxypropylcellulose) (HPC) 90 % of control

CN(C)CCCN=C(N)CSP(=O)(O)O
inactive: [4] 102 % of control | [5] 109 % of control

CCCCCCCC/C=C\CCCCCCCC(=O)OCCCCC
inactive: [6] 87 % of control | [7] 95 % of control | [8] 106 % of control

CC(=O)N1CCCC2=C1CCCCCC2
inactive: dose: 12.5 mg/kg/injection, schedule: Q04DX003 (ip), vehicle: saline 101 % of control | [9] 110 % of control | dose: 25.0 mg/kg/injection, schedule: Q04DX003 (ip), vehicle: saline 88 % of control | [10] 115 % of control | dose: 50.0 mg/kg/injection, schedule: Q04DX003 (ip), vehicle: saline 88 % of control | dose: 100.0 mg/kg/injection, schedule: Q01DX001 (ip), vehicle: saline 96 % of control | [11] 113 % of control | [4] 102 % of control | [1] 90 % of control | dose: 200.0 mg/kg/injection, schedule: Q01DX001 (ip), vehicle: saline 102 % of control | [12] 110 % of control | [5] 98 % of control | [2] 95 % of control | dose: 400.0 mg/kg/injection, schedule: Q01DX001 (ip), vehicle: saline 93 % of control | dose: 400.0 mg/kg/injection, schedule: Q04DX002 (ip), vehicle: saline 95 % of control | [3] 91 % of control | dose: 500.0 mg/kg/injection, schedule: Q04DX002 (ip), vehicle: saline 98 % of control | dose: 600.0 mg/kg/injection, schedule: Q01DX001 (ip), vehicle: saline 93 % of control

O=C(Nc1cccc2c(NC(=O)c3ccccc3)cccc12)c1ccccc1
inactive: [13] 94 % of control | [14] 95 % of control | [15] 91 % of control

CN(C)P1(=S)NCC(C(C)(C)C)CO1 (stereo not given)
inactive: dose: 15.63 mg/kg/injection, schedule: Q01DX001 (ip), vehicle: distilled water + Tween-80 103 % of control | dose: 31.25 mg/kg/injection, schedule: Q01DX001 (ip), vehicle: distilled water + Tween-80 103 % of control | dose: 62.5 mg/kg/injection, schedule: Q01DX001 (ip), vehicle: distilled water + Tween-80 103 % of control | dose: 125.0 mg/kg/injection, schedule: Q01DX001 (ip), vehicle: distilled water + Tween-80 97 % of control | dose: 250.0 mg/kg/injection, schedule: Q01DX001 (ip), vehicle: distilled water + Tween-80 92 % of control

c1ccc(OCCCNc2ccccn2)cc1
inactive: dose: 25.0 mg/kg/injection, schedule: Q04DX003 (ip), vehicle: saline with Tween-80 92 % of control | dose: 50.0 mg/kg/injection, schedule: Q04DX003 (ip), vehicle: saline with Tween-80 103 % of control | [16] 92 % of control and 97 % of control

CCS(=O)(=O)OC1CCCCCCC1NC(=O)c1ccccc1 (stereo not given)
inactive: [17] 100 % of control | [13] 97 % of control | [16] 104 % of control | [18] 98 % of control

Cn1cnc([N+](=O)[O-])c1SCC(=O)O
inactive: [19] 95 % of control | dose: 12.5 mg/kg/injection, schedule: Q01DX009 (ip), vehicle: saline 109 % of control | [20] 98 % of control | [9] 112 % of control | [17] 95 % of control | [10] 109 % of control | [13] 98 % of control | [11] 101 % of control | [14] 104 % of control | [12] 104 % of control | [15] 98 % of control | dose: 400.0 mg/kg/injection, schedule: Q01DX009 (ip), vehicle: saline 109 % of control

C(=N\N=C(c1ccccc1)c1ccccc1)/c1ccc2c(c1)CCC2
inactive: [16] 87 % of control | [18] 95 % of control | dose: 400.0 mg/kg/injection, schedule: Q04DX003 (ip), vehicle: saline with Tween-80 91 % of control

O=C(O)C(C(=O)O)C1C=CCC1 (stereo not given)
inactive: [21] 98 % of control | [6] 102 % of control | [7] 87 % of control | [8] 87 % of control

O=C(NCCCCCCCCCCNC(=O)Nc1ccc(C2=NCCCN2)cc1)Nc1ccc(C2=NCCCN2)cc1
inactive: dose: 5.0 mg/kg/injection, schedule: Q01DX009 (ip), vehicle: saline 103 % of control | dose: 8.0 mg/kg/injection, schedule: Q01DX009 (ip), vehicle: saline 117 % of control | dose: 19.0 mg/kg/injection, schedule: Q01DX009 (ip), vehicle: saline 121 % of control

COc1cc(NC(=O)Nc2ccccc2Cl)c(OC)cc1Cl
inactive: dose: 25.0 mg/kg/injection, schedule: Q04DX002 (ip), vehicle: saline with Tween-80 98 % of control | [21] 94 % of control | [6] 102 % of control

CC(C)(C)C1=CC(=C2C=C(C(C)(C)C)C(=O)C(C(C)(C)C)=C2)C=C(C(C)(C)C)C1=O
inactive: dose: 75.0 mg/kg/injection, schedule: Q04DX003 (ip), vehicle: saline with Tween-80 100 % of control | [13] 95 % of control | dose: 150.0 mg/kg/injection, schedule: Q04DX003 (ip), vehicle: saline with Tween-80 100 % of control | [14] 91 % of control | dose: 300.0 mg/kg/injection, schedule: Q04DX003 (ip), vehicle: saline with Tween-80 89 % of control | [15] 91 % of control

Cc1cccc(C)c1N=NN(C)C
inactive: dose: 6.25 mg/kg/injection, schedule: Q01DX009 (ip), vehicle: saline with Tween-80 107 % of control | dose: 12.5 mg/kg/injection, schedule: Q01DX009 (ip), vehicle: other 90 % of control | [19] 104 % of control | dose: 25.0 mg/kg/injection, schedule: Q01DX009 (ip), vehicle: other 100 % of control | [20] 118 % of control

CC1CCC2[S][Sn]3([NH]C2C1)[NH]C1CC(C)CCC1[S]3 (stereo not given)
inactive: [6] 106 % of control | [7] 111 % of control
